Laboratory results as given in ChEMBL document CHEMBL1149775, “Synthesis, characterization and biological activity of Schiff base analogues of indole-3-carboxaldehyde” (2008).
In brackets after ≈: the same amount, converted by molar mass.

How the values were obtained:
Type in all cases: functional
[1] = tested on: Bacillus subtilis; test: Antibacterial activity against Bacillus subtilis after 24 hrs by broth dilution technique
[2] = tested on: Staphylococcus aureus; test: Antibacterial activity against Staphylococcus aureus after 24 hrs by broth dilution technique
[3] = tested on: Aspergillus niger; test: Antifungal activity against Aspergillus niger after 48 hrs by serial plate dilution method
[4] = tested on: Candida albicans; test: Antifungal activity against Candida albicans after 48 hrs by serial plate dilution method
[5] = tested on: Trichophyton rubrum; test: Antifungal activity against Trichophyton rubrum after 48 hrs by serial plate dilution method
[6] = tested on: Pseudomonas fluorescens; test: Antibacterial activity against Pseudomonas fluorescens after 24 hrs by broth dilution technique

Row | Structure (SMILES) | MIC [1] [µg/mL] | MIC [2] [µg/mL] | MIC [3] [µg/mL] | MIC [4] [µg/mL] | MIC [5] [µg/mL] | MIC [6] [µg/mL]
1 | O=C(O)C(Cc1c[nH]cn1)/N=C/c1c[nH]c2ccccc12 (configuration not stated) | 35.1 (≈ 124 µM) | 3.4 (≈ 12 µM) | 47.5 (≈ 168 µM) | > 50 | > 50 | 3.8 (≈ 13.5 µM)
2 | O=C(O)CCC(/N=C/c1c[nH]c2ccccc12)C(=O)O (configuration not stated) | 48.2 (≈ 176 µM) | 19.2 (≈ 70 µM) | > 50 | 12.5 (≈ 45.6 µM) | > 50 | 5.7 (≈ 20.8 µM)
3 | Oc1ccccc1/N=C/c1c[nH]c2ccccc12 | 18.4 (≈ 77.9 µM) | 35.9 (≈ 152 µM) | > 50 | 28.4 (≈ 120 µM) | > 50 | 15.8 (≈ 66.9 µM)
4 | CC(C)C(/N=C/c1c[nH]c2ccccc12)C(=O)O (configuration not stated) | 42.5 (≈ 174 µM) | 16.8 (≈ 68.8 µM) | > 50 | 26.8 (≈ 110 µM) | > 50 | 38.1 (≈ 156 µM)

Stronger by MIC [1], values ahead:

Row | MIC [1] [µg/mL] | MIC [2] [µg/mL] | MIC [3] [µg/mL] | MIC [4] [µg/mL] | MIC [5] [µg/mL] | MIC [6] [µg/mL] | Structure (SMILES)
5 | 15.5 (≈ 42.3 µM) | > 50 | 21.3 (≈ 58.1 µM) | 15.2 (≈ 41.5 µM) | 21.9 (≈ 59.8 µM) | 21.6 (≈ 59 µM) | O=S(=O)(O)c1cc(O)c(/N=C/c2c[nH]c3ccccc23)c2ccccc12
6 | 12.1 (≈ 46.8 µM) | 35.3 (≈ 137 µM) | > 50 | 19.9 (≈ 77 µM) | > 50 | > 50 | CC(C)CC(/N=C/c1c[nH]c2ccccc12)C(=O)O (configuration not stated)
7 | 11.3 (≈ 43.4 µM) | 18.5 (≈ 71.1 µM) | 17.8 (≈ 68.4 µM) | 11.9 (≈ 45.7 µM) | 16.2 (≈ 62.2 µM) | 19.3 (≈ 74.2 µM) | O=C(O)CC(/N=C/c1c[nH]c2ccccc12)C(=O)O (configuration not stated)
